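Cultured in 96-well plates, cells were exposed to test compound for 48 hours across five concentrations. GI50: concentration for 50% inhibition of growth. TGI marks complete inhibition of growth.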

Among the test systems are ACHN renal; NCI/ADR-RES ovarian; RXF 393 renal; HCC-2998 colon; DU-145 prostate.
What all share (assay): NCI-60 cell line screen, 48 h

For the molecule `N=C(N)c1ccc(OCCCCCCCCCCOc2ccc(C(=N)N)cc2)cc1`, the GI50 in the assay on ACHN renal was 1.54 µM; in the assay on NCI/ADR-RES ovarian it was 17.7 µM; in the assay on RXF 393 renal it was 1.28 µM; in the assay with HCC-2998 colon it was 1.29 µM; in the assay on DU-145 prostate it was 1.61 µM. Also, the TGI in the assay with ACHN renal was 2.88 µM; in the assay on NCI/ADR-RES ovarian it was 83.7 µM; in the assay on RXF 393 renal, 2.87 µM; in the assay on HCC-2998 colon, 2.79 µM; in the assay on DU-145 prostate, 3.01 µM.

These data come from PubChem BioAssay (NCI).
